# Test system: wheat (Triticum aestivum)
# Assay: Test A pre-/postemergence greenhouse herbicide test, visual injury rating 0-100
# Assay type: in vivo
# Conditions: Postemergence, 125 g ai/ha
# Outline: (§1)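 Planting in a loam and sand mixture preceded a directed preemergence soil spray; postemergence spray was applied concurrently to one- to two-leaf plants. After roughly 10 days under glass, injury is scored visually against untreated controls, 0–100.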
row,Structure (SMILES),"Plant response rating (0 to 100 scale), Wheat"
1,O=C(c1cncc(F)c1)c1c[nH]nc1-c1cc(F)cc(F)c1 [Compound 23],0
2,CC(=O)Cn1cc(C(=O)c2ccccc2)c(-c2cc(Cl)cc(Cl)c2)n1 [Compound 45],0

# Same assay, conditions: Postemergence, 500 g ai/ha
row,Structure (SMILES),"Plant response rating (0 to 100 scale), Wheat"
1,O=C(c1cncc(F)c1)c1c[nH]nc1-c1cc(F)cc(F)c1 [Compound 23],0
2,CC(=O)Cn1cc(C(=O)c2ccccc2)c(-c2cc(Cl)cc(Cl)c2)n1 [Compound 45],0

# Same assay, conditions: Preemergence, 125 g ai/ha
row,Structure (SMILES),"Wheat plant response rating (0 = no effect, 100 = complete control)"
1,O=C(c1cncc(F)c1)c1c[nH]nc1-c1cc(F)cc(F)c1 [Compound 23],0
2,CC(=O)Cn1cc(C(=O)c2ccccc2)c(-c2cc(Cl)cc(Cl)c2)n1 [Compound 45],0

# Same assay, conditions: Preemergence, 500 g ai/ha
row,Structure (SMILES),"Plant response rating (0 to 100 scale), Wheat"
1,O=C(c1cncc(F)c1)c1c[nH]nc1-c1cc(F)cc(F)c1 [Compound 23],0
2,CC(=O)Cn1cc(C(=O)c2ccccc2)c(-c2cc(Cl)cc(Cl)c2)n1 [Compound 45],0

# Test system: morningglory (Ipomoea spp.)
# Assay: as above
# Assay type: in vivo
# Conditions: Postemergence, 125 g ai/ha
# Outline: as §1
row,Structure (SMILES),"Plant response rating (0 to 100 scale), Morningglory"
1,O=C(c1cncc(F)c1)c1c[nH]nc1-c1cc(F)cc(F)c1 [Compound 23],0

# Same assay, conditions: Postemergence, 500 g ai/ha
row,Structure (SMILES),"Plant response rating (0 to 100 scale), Morningglory"
1,O=C(c1cncc(F)c1)c1c[nH]nc1-c1cc(F)cc(F)c1 [Compound 23],0

# Same assay, conditions: Preemergence, 125 g ai/ha
row,Structure (SMILES),"Morningglory plant response rating (0 = no effect, 100 = complete control)"
1,O=C(c1cncc(F)c1)c1c[nH]nc1-c1cc(F)cc(F)c1 [Compound 23],0
2,CC(=O)Cn1cc(C(=O)c2ccccc2)c(-c2cc(Cl)cc(Cl)c2)n1 [Compound 45],0

# Same assay, conditions: Preemergence, 500 g ai/ha
row,Structure (SMILES),"Plant response rating (0 to 100 scale), Morningglory"
1,O=C(c1cncc(F)c1)c1c[nH]nc1-c1cc(F)cc(F)c1 [Compound 23],0
2,CC(=O)Cn1cc(C(=O)c2ccccc2)c(-c2cc(Cl)cc(Cl)c2)n1 [Compound 45],0

# Test system: velvetleaf (Abutilon theophrasti)
# Assay: as above
# Assay type: in vivo
# Conditions: Postemergence, 125 g ai/ha
# Outline: as §1
row,Structure (SMILES),"Plant response rating (0 to 100 scale), Velvetleaf"
1,O=C(c1cncc(F)c1)c1c[nH]nc1-c1cc(F)cc(F)c1 [Compound 23],0
2,CC(=O)Cn1cc(C(=O)c2ccccc2)c(-c2cc(Cl)cc(Cl)c2)n1 [Compound 45],60

# Same assay, conditions: Postemergence, 500 g ai/ha
row,Structure (SMILES),"Plant response rating (0 to 100 scale), Velvetleaf"
1,O=C(c1cncc(F)c1)c1c[nH]nc1-c1cc(F)cc(F)c1 [Compound 23],40
2,CC(=O)Cn1cc(C(=O)c2ccccc2)c(-c2cc(Cl)cc(Cl)c2)n1 [Compound 45],80

# Same assay, conditions: Preemergence, 125 g ai/ha
row,Structure (SMILES),"Velvetleaf plant response rating (0 = no effect, 100 = complete control)"
1,O=C(c1cncc(F)c1)c1c[nH]nc1-c1cc(F)cc(F)c1 [Compound 23],60
2,CC(=O)Cn1cc(C(=O)c2ccccc2)c(-c2cc(Cl)cc(Cl)c2)n1 [Compound 45],20

# Same assay, conditions: Preemergence, 500 g ai/ha
row,Structure (SMILES),"Plant response rating (0 to 100 scale), Velvetleaf"
1,O=C(c1cncc(F)c1)c1c[nH]nc1-c1cc(F)cc(F)c1 [Compound 23],90
2,CC(=O)Cn1cc(C(=O)c2ccccc2)c(-c2cc(Cl)cc(Cl)c2)n1 [Compound 45],30

# Test system: corn (Zea mays)
# Assay: as above
# Assay type: in vivo
# Conditions: Postemergence, 125 g ai/ha
# Outline: as §1
row,Structure (SMILES),"Plant response rating (0 to 100 scale), Corn"
1,O=C(c1cncc(F)c1)c1c[nH]nc1-c1cc(F)cc(F)c1 [Compound 23],0
2,CC(=O)Cn1cc(C(=O)c2ccccc2)c(-c2cc(Cl)cc(Cl)c2)n1 [Compound 45],0

# Same assay, conditions: Postemergence, 500 g ai/ha
row,Structure (SMILES),"Plant response rating (0 to 100 scale), Corn"
1,O=C(c1cncc(F)c1)c1c[nH]nc1-c1cc(F)cc(F)c1 [Compound 23],0
2,CC(=O)Cn1cc(C(=O)c2ccccc2)c(-c2cc(Cl)cc(Cl)c2)n1 [Compound 45],0

# Same assay, conditions: Preemergence, 125 g ai/ha
row,Structure (SMILES),"Corn plant response rating (0 = no effect, 100 = complete control)"
1,O=C(c1cncc(F)c1)c1c[nH]nc1-c1cc(F)cc(F)c1 [Compound 23],0
2,CC(=O)Cn1cc(C(=O)c2ccccc2)c(-c2cc(Cl)cc(Cl)c2)n1 [Compound 45],0

# Same assay, conditions: Preemergence, 500 g ai/ha
row,Structure (SMILES),"Plant response rating (0 to 100 scale), Corn"
1,O=C(c1cncc(F)c1)c1c[nH]nc1-c1cc(F)cc(F)c1 [Compound 23],0
2,CC(=O)Cn1cc(C(=O)c2ccccc2)c(-c2cc(Cl)cc(Cl)c2)n1 [Compound 45],0

# Test system: barnyardgrass (Echinochloa crus-galli)
# Assay: as above
# Assay type: in vivo
# Conditions: Postemergence, 125 g ai/ha
# Outline: as §1
row,Structure (SMILES),"Plant response rating (0 to 100 scale), Barnyardgrass"
1,O=C(c1cncc(F)c1)c1c[nH]nc1-c1cc(F)cc(F)c1 [Compound 23],0
2,CC(=O)Cn1cc(C(=O)c2ccccc2)c(-c2cc(Cl)cc(Cl)c2)n1 [Compound 45],0

# Same assay, conditions: Postemergence, 500 g ai/ha
row,Structure (SMILES),"Plant response rating (0 to 100 scale), Barnyardgrass"
1,O=C(c1cncc(F)c1)c1c[nH]nc1-c1cc(F)cc(F)c1 [Compound 23],0
2,CC(=O)Cn1cc(C(=O)c2ccccc2)c(-c2cc(Cl)cc(Cl)c2)n1 [Compound 45],0

# Same assay, conditions: Preemergence, 125 g ai/ha
row,Structure (SMILES),"Barnyardgrass plant response rating (0 = no effect, 100 = complete control)"
1,O=C(c1cncc(F)c1)c1c[nH]nc1-c1cc(F)cc(F)c1 [Compound 23],0
2,CC(=O)Cn1cc(C(=O)c2ccccc2)c(-c2cc(Cl)cc(Cl)c2)n1 [Compound 45],0

# Same assay, conditions: Preemergence, 500 g ai/ha
row,Structure (SMILES),"Plant response rating (0 to 100 scale), Barnyardgrass"
1,O=C(c1cncc(F)c1)c1c[nH]nc1-c1cc(F)cc(F)c1 [Compound 23],0
2,CC(=O)Cn1cc(C(=O)c2ccccc2)c(-c2cc(Cl)cc(Cl)c2)n1 [Compound 45],0

# Test system: pigweed (Amaranthus retroflexus)
# Assay: as above
# Assay type: in vivo
# Conditions: Postemergence, 125 g ai/ha
# Outline: as §1
row,Structure (SMILES),"Plant response rating (0 to 100 scale), Pigweed"
1,O=C(c1cncc(F)c1)c1c[nH]nc1-c1cc(F)cc(F)c1 [Compound 23],50
2,CC(=O)Cn1cc(C(=O)c2ccccc2)c(-c2cc(Cl)cc(Cl)c2)n1 [Compound 45],40

# Same assay, conditions: Postemergence, 500 g ai/ha
row,Structure (SMILES),"Plant response rating (0 to 100 scale), Pigweed"
1,O=C(c1cncc(F)c1)c1c[nH]nc1-c1cc(F)cc(F)c1 [Compound 23],60
2,CC(=O)Cn1cc(C(=O)c2ccccc2)c(-c2cc(Cl)cc(Cl)c2)n1 [Compound 45],60

# Same assay, conditions: Preemergence, 125 g ai/ha
row,Structure (SMILES),"Pigweed plant response rating (0 = no effect, 100 = complete control)"
1,O=C(c1cncc(F)c1)c1c[nH]nc1-c1cc(F)cc(F)c1 [Compound 23],70
2,CC(=O)Cn1cc(C(=O)c2ccccc2)c(-c2cc(Cl)cc(Cl)c2)n1 [Compound 45],0

# Same assay, conditions: Preemergence, 500 g ai/ha
row,Structure (SMILES),"Plant response rating (0 to 100 scale), Pigweed"
1,O=C(c1cncc(F)c1)c1c[nH]nc1-c1cc(F)cc(F)c1 [Compound 23],100
2,CC(=O)Cn1cc(C(=O)c2ccccc2)c(-c2cc(Cl)cc(Cl)c2)n1 [Compound 45],70

# Test system: giant foxtail (Setaria faberii)
# Assay: as above
# Assay type: in vivo
# Conditions: Postemergence, 125 g ai/ha
# Outline: as §1
row,Structure (SMILES),"Plant response rating (0 to 100 scale), Foxtail, Giant"
1,O=C(c1cncc(F)c1)c1c[nH]nc1-c1cc(F)cc(F)c1 [Compound 23],0
2,CC(=O)Cn1cc(C(=O)c2ccccc2)c(-c2cc(Cl)cc(Cl)c2)n1 [Compound 45],0

# Same assay, conditions: Postemergence, 500 g ai/ha
row,Structure (SMILES),"Plant response rating (0 to 100 scale), Foxtail, Giant"
1,O=C(c1cncc(F)c1)c1c[nH]nc1-c1cc(F)cc(F)c1 [Compound 23],0
2,CC(=O)Cn1cc(C(=O)c2ccccc2)c(-c2cc(Cl)cc(Cl)c2)n1 [Compound 45],0

# Same assay, conditions: Preemergence, 125 g ai/ha
row,Structure (SMILES),"Foxtail, Giant plant response rating (0 = no effect, 100 = complete control)"
1,O=C(c1cncc(F)c1)c1c[nH]nc1-c1cc(F)cc(F)c1 [Compound 23],0
2,CC(=O)Cn1cc(C(=O)c2ccccc2)c(-c2cc(Cl)cc(Cl)c2)n1 [Compound 45],0

# Same assay, conditions: Preemergence, 500 g ai/ha
row,Structure (SMILES),"Plant response rating (0 to 100 scale), Foxtail, Giant"
1,O=C(c1cncc(F)c1)c1c[nH]nc1-c1cc(F)cc(F)c1 [Compound 23],0
2,CC(=O)Cn1cc(C(=O)c2ccccc2)c(-c2cc(Cl)cc(Cl)c2)n1 [Compound 45],0

# Test system: large (Lg) crabgrass (Digitaria sanguinalis)
# Assay: as above
# Assay type: in vivo
# Conditions: Postemergence, 125 g ai/ha
# Outline: as §1
row,Structure (SMILES),"Plant response rating (0 to 100 scale), Crabgrass, Large"
1,O=C(c1cncc(F)c1)c1c[nH]nc1-c1cc(F)cc(F)c1 [Compound 23],0
2,CC(=O)Cn1cc(C(=O)c2ccccc2)c(-c2cc(Cl)cc(Cl)c2)n1 [Compound 45],0

# Same assay, conditions: Postemergence, 500 g ai/ha
row,Structure (SMILES),"Plant response rating (0 to 100 scale), Crabgrass, Large"
1,O=C(c1cncc(F)c1)c1c[nH]nc1-c1cc(F)cc(F)c1 [Compound 23],0
2,CC(=O)Cn1cc(C(=O)c2ccccc2)c(-c2cc(Cl)cc(Cl)c2)n1 [Compound 45],0

# Same assay, conditions: Preemergence, 125 g ai/ha
row,Structure (SMILES),"Crabgrass, Large plant response rating (0 = no effect, 100 = complete control)"
1,CC(=O)Cn1cc(C(=O)c2ccccc2)c(-c2cc(Cl)cc(Cl)c2)n1 [Compound 45],0

# Same assay, conditions: Preemergence, 500 g ai/ha
row,Structure (SMILES),"Plant response rating (0 to 100 scale), Crabgrass, Large"
1,O=C(c1cncc(F)c1)c1c[nH]nc1-c1cc(F)cc(F)c1 [Compound 23],0
2,CC(=O)Cn1cc(C(=O)c2ccccc2)c(-c2cc(Cl)cc(Cl)c2)n1 [Compound 45],0

# Test system: rice (Oryza sativa)
# Assay: Test B flooded paddy test, plant response rating 0-100
# Assay type: in vivo
# Conditions: Flood, 250 g ai/ha; scale 0 to 100 (0 no effect, 100 complete control); 13 to 15 days
# Source text: (§2) At time of treatment, test pots were flooded to 3 cm above the soil surface, treated by application of test compounds directly to the paddy water, and then maintained at that water depth for the duration of the test. Treated plants and controls were maintained in a greenhouse for 13 to 15 days, after which time all species were compared to controls and visually evaluated. […] A dash (-) response means no test result.
row,Structure (SMILES),"Plant response rating, Rice"
1,O=C(c1cncc(F)c1)c1c[nH]nc1-c1cc(F)cc(F)c1 [Compound 23],0
2,CC(=O)Cn1cc(C(=O)c2ccccc2)c(-c2cc(Cl)cc(Cl)c2)n1 [Compound 45],0

# Test system: barnyardgrass (Echinochloa crus-galli)
# Assay: as above
# Assay type: in vivo
# Conditions: Flood, 250 g ai/ha; scale 0 to 100 (0 no effect, 100 complete control); 13 to 15 days
# Source text: as §2
row,Structure (SMILES),"Plant response rating, Barnyardgrass"
1,O=C(c1cncc(F)c1)c1c[nH]nc1-c1cc(F)cc(F)c1 [Compound 23],0
2,CC(=O)Cn1cc(C(=O)c2ccccc2)c(-c2cc(Cl)cc(Cl)c2)n1 [Compound 45],0

# Test system: sedge, umbrella (small-flower umbrella sedge, Cyperus difformis)
# Assay: as above
# Assay type: in vivo
# Conditions: Flood, 250 g ai/ha; scale 0 to 100 (0 no effect, 100 complete control); 13 to 15 days
# Source text: as §2
row,Structure (SMILES),"Plant response rating, Sedge, Umbrella"
1,O=C(c1cncc(F)c1)c1c[nH]nc1-c1cc(F)cc(F)c1 [Compound 23],0
2,CC(=O)Cn1cc(C(=O)c2ccccc2)c(-c2cc(Cl)cc(Cl)c2)n1 [Compound 45],0

# Test system: ducksalad (Heteranthera limosa)
# Assay: as above
# Assay type: in vivo
# Conditions: Flood, 250 g ai/ha; scale 0 to 100 (0 no effect, 100 complete control); 13 to 15 days
# Source text: as §2
row,Structure (SMILES),"Plant response rating, Ducksalad"
1,O=C(c1cncc(F)c1)c1c[nH]nc1-c1cc(F)cc(F)c1 [Compound 23],0
2,CC(=O)Cn1cc(C(=O)c2ccccc2)c(-c2cc(Cl)cc(Cl)c2)n1 [Compound 45],0

# Source: patent US10167262B2, “Herbicidal substituted 3-arylpyrazoles” (FMC CORPORATION, priority 2014, dated 2019)
